Legend:
[1] = tested on: p185^Her-2/neu; test: Flow cytometric analysis of cell surface-associated p185Her-2/neu; format: cell-based, human; settings: scavenger of reactive oxygen species added to OA treatment
Source text: FIG. 1. […] FIG. 2. […] The amount of cell surface-associated p185^Her-2/neu was quantified by flow cytometric analyses using a specific antibody against the extracellular domain of p185^Her-2/neu (Ab-5), as described herein. The mean fluorescence signal±SD (n=3) was quantified using the geo mean fluorescence (GM) parameter provided with the Cell Quest Software (Becton Dickinson). […] After labeling, cells were washed thoroughly, and localization of p185^Her-2/neu was detected by indirect immunofluorescence by incubating with FITC-conjugated anti-mouse IgG. After counterstaining with DAPI, cells were examined and photographed using a Zeiss fluorescent microscope equipped with a built-in camera. […] Before experiments, cells were serum-starved overnight and then cultured in IMEM containing 0.1% FBS in the absence or presence of GLA (Sigma Chemical Co., St. Louis, Mo.). GLA was prepared at a concentration of 1 mg/mL in ethanol and was added to a final concentration of 0, 5, 10, or 20 μg/mL; an equal volume of ethanol was added to control cells. […] A) Cell surface expression of Her-2/neu protein in BT-474 and SK-Br3 cells was determined by flow cytometry using a mouse anti-Her-2/neu antibody directed against the extracellular domain of the p185^Her-2/neu oncoprotein (clone Ab-5; Oncogene Research Products; San Diego, Calif.). Briefly, after GLA or control treatment, cells were washed, harvested, resuspended in phosphate-buffered saline (PBS) containing 1% FBS, and incubated with 5 μg/mL Ab-5 antibody for 1 hour at 4° C. The cells were washed again and then incubated with a fluorescein isothiocyanate (FITC)-conjugated anti-mouse IgG secondary antibody (Jackson ImnunoResearch Laboratories, West Grove, Pa.) diluted 1:200 in cold PBS containing 1% FBS for 45 minutes at 4° C. The cells were washed once more in cold PBS, and flow cytometric analysis was performed with a FACScalibur flow cytometer (Becton Dickinson, San Diego, Calif.) equipped with Cell Quest Software (Becton Dickinson). […] As a control for nonspecific immunofluorescence, cells were stained with the secondary antibody alone (solid black line). The mean fluorescence signal associated with cells for labeled p185^Her-2/neu was quantified using the Geo Mean (GM) fluorescence parameter provided with the software. […] B) Immunoblot analysis of Her-2/neu and PEA3 proteins in control- and GLA-treated BT-474 and SK-Br3 cells. […] Immunoreactive bands were detected by enhanced chemiluminescence reagent (Pierce, Rockford, Ill.). Blots were reprobed with an anti-β-actin goat polyclonal antibody (Santa Cruz Biotechnology) to control for protein loading and transfer. Densitometric values of protein bands were quantified using Scion Imaging Software (Scion Corp., Frederick, Md.).

[2] = tested on: Breast Cancer Cells; test: Effect of fatty acids, breast cancer cells (Table 2); format: cell-based; settings: FAS named only for oleic acid
[3] = tested on: Lipogenic Cells; test: Effect of fatty acids, lipogenic cells (Table 2); format: cell-based

| Compound | prevention of OA-induced suppression of Her-2/neu overexpression [1] | Effect of Fatty Acids: Breast Cancer Cells [2] | Effect of Fatty Acids: Lipogenic Cells [3] |
| --- | --- | --- | --- |
| Cc1c(C)c2c(c(C)c1O)CCC(C)(CCCC(C)CCCC(C)CCCC(C)C)O2 (racemic) [vitamin E, dl-α-tocopherol, reference compound] | not significantly prevented | – | – |
| CCC=CCC=CCC=CCCCCCCCC(=O)O [ω-3 Alpha-Linolenic acid, 9,12,15-octadecatrienoic acid] | – | Potent Down-regulator | No effect |
| CCC=CCC=CCC=CCC=CCC=CCC=CCCC(=O)O [ω-3 Docosahexaenoic acid, 4,7,10,13,16,19-docosahexaenoic acid, reference compound] | – | Weak Down-regulator | No effect |
| CCC=CCC=CCC=CCC=CCC=CCCCC(=O)O [ω-3 Eicosapentaenoic acid, 5,8,11,14,17-eicosapentaenoic acid, reference compound] | – | No effect | Down-regulator |
| CCCCCC=CCC=CCCCCCCCC(=O)O [ω-6 Linoleic acid, 9,12-octadecadienoic acid, reference compound] | – | No effect | Potent |

From patent publication US20070207975A1, “Materials and methods for treating and preventing Her-2/neu overexpressing, FAS-elevated cancer cells” (EVANSTON NORTHWESTERN HEALTHCARE, priority 2006, published 2007)
